In patent US20200054555A1, “CONTACT LENS WITH FUNCTIONAL COMPONENTS AND PRODUCTS THEREOF” (UNICON OPTICAL CO., LTD., priority 2018, published 2020):

Assay: accumulated release of functional components from the contact lens over time, detected by high performance liquid chromatography
Type: physicochemical
Settings: with a cyclic oligosaccharide or cyclic polysaccharide
Protocol: Further, the present invention uses high performance liquid chromatography to detect accumulation of the released functional components of the contact lens with increasing time. It is learned from FIG. 2: the contact lens of the present invention, which is a HEMA lens made up of 38% water by weight and a cyclic oligosaccharide or cyclic polysaccharide, can persistently release Vitamin B12 for a longer period of time (more than 12 hours). It is learned from FIG. 3: the contact lens of the present invention, which is an organosilicon hydrogel contact lens made up of 43% water by weight and a cyclic oligosaccharide or cyclic polysaccharide, can persistently release Vitamin B12 for a longer period of time (more than 12 hours). It is learned from FIG. 4: the contact lens of the present invention, which contains HEMA and 38% water by weight and a cyclic oligosaccharide or cyclic polysaccharide, can persistently release curcumin for a longer period of time (more than 20 hours). It is learned from FIG. 5: the contact lens of the present invention, which contains HEMA and 38% water by weight and a cyclic oligosaccharide or cyclic polysaccharide, can persistently release quercetin in a longer time interval (more than 20 hours). It is learned from FIG. 6: the contact lens of the present invention, which is made from HEMA and 38% water by weight, and a cyclic oligosaccharide or cyclic polysaccharide, can persistently release xanthophyll for a longer period of time (more than 30 hours).

[1] = HEMA contact lens, 38% water by weight, FIG. 2, 4, 5, 6

Substance	period of persistent release of the functional component from the contact lens [1]	period of persistent release of the functional component from the contact lens (organosilicon hydrogel contact lens, 43% water by weight, FIG. 3)
Vitamin B12	more than 12 hours	more than 12 hours
xanthophyll	more than 30 hours	
